The values below come from patent US8304419B2, “Chemical compounds” (priority 2007, dated 2012).

Where a name gives a salt, the structure may show the parent alone. Bounds are passed on as bounds.

For one experiment, the system named is HIV wild type (WTRVA). Put plainly: HeLa cell assay, wild type virus (WTRVA). The format is cell-based, HIV-1. The settings on record: Human immunodeficiency virus 1, HeLa, HeLa cell assay; read-out: IC50 against WTRVA. Details: scale not given here.
For the compound `N#Cc1cc(Cl)cc(Oc2c(Cl)ccc(Cn3cnc4cc[nH]c4c3=O)c2F)c1` [Example 369, 3-chloro-5-({6-chloro-2-fluoro-3-[(4-oxo-4,5-dihydro-3H-pyrrolo[3,2-d]pyrimidin-3-yl)methyl]phenyl}oxy)benzonitrile], the IC50 is less than 10 nM. Regarding `CNc1nc(Cl)c(C(=O)NCc2ccc(Cl)c(Oc3cc(Cl)cc(C#N)c3)c2F)[nH]1` [Example 363, 4-chloro-N-({4-chloro-3-[(3-chloro-5-cyanophenyl)oxy]-2-fluorophenyl}methyl)-2-(methylamino)-1H-imidazole-5-carboxamide trifluoroacetate], the IC50 is less than 10 nM. On the same count and under the same terms, as for `C#Cc1cc(C#N)cc(Oc2c(Cl)ccc(CNC(=O)c3[nH]cnc3Cl)c2F)c1` [Example 310, 4-chloro-N-({4-chloro-3-[(3-cyano-5-ethynylphenyl)oxy]-2-fluorophenyl}methyl)-1H-imidazole-5-carboxamide], the figure is less than 10 nM; as for `N#Cc1cc(Cl)cc(Oc2c(Br)ccc(CNC(=O)c3[nH]cnc3Br)c2F)c1` [Example 377, 4-bromo-N-({4-bromo-3-[(3-chloro-5-cyanophenyl)oxy]-2-fluorophenyl}methyl)-1H-imidazole-5-carboxamide], less than 10 nM.

As for `CCc1cc(C#N)cc(Oc2c(Cl)ccc(CNC(=O)c3[nH]c(C)nc3Br)c2F)c1` [Example 149, 4-bromo-N-({4-chloro-3-[(3-cyano-5-ethylphenyl)oxy]-2-fluorophenyl}methyl)-2-methyl-1H-imidazole-5-carboxamide], the IC50 is less than 10 nM.

The same experiment, now with this note: Human immunodeficiency virus 1, HeLa, HeLa-CD4-LTR-β-gal cells, wild type virus; read-out: WTRVA activity level.
Take `CC(C)(C)OC(=O)Nc1cccc2cc(C(=O)NCc3ccc(Cl)c(Oc4cc(Cl)cc(C#N)c4)c3F)[nH]c12` [Example 112, 1,1-dimethylethyl (2-{[({4-chloro-3-[(3-chloro-5-cyanophenyl)oxy]-2-fluorophenyl}methyl)amino]carbonyl}-1H-indol-7-yl)carbamate]: the IC50 lay within 10 to 1000 nM. On the same count and under the same terms, the result for `CCCc1nc(Cl)c(C(=O)NCc2ccc(Cl)c(Oc3cc(Cl)cc(C#N)c3)c2F)[nH]1` [Example 139, 4-chloro-N-({4-chloro-3-[(3-chloro-5-cyanophenyl)oxy]-2-fluorophenyl}methyl)-2-propyl-1H-imidazole-5-carboxamide] reads less than 10 nM.

On to `N#Cc1cc(Cl)cc(Oc2c(Cl)ccc(CNC(=O)c3nc4ccccc4[nH]3)c2F)c1` [Example 35, N-({4-chloro-3-[(3-chloro-5-cyanophenyl)oxy]-2-fluorophenyl}methyl)-1H-benzimidazole-2-carboxamide], for which the IC50 is less than 10 nM. On the same count and under the same terms, as for `N#Cc1cc(Cl)cc(Oc2c(Cl)ccc(CNC(=O)c3n[nH]c([N+](=O)[O-])c3Br)c2F)c1` [Example 69, 4-bromo-N-({4-chloro-3-[(3-chloro-5-cyanophenyl)oxy]-2-fluorophenyl}methyl)-5-nitro-1H-pyrazole-3-carboxamide trifluoroacetate], the figure is 10 to 1000 nM. As for `N#Cc1cc(Cl)cc(Oc2c(Cl)ccc(CNC(=O)c3ccc[nH]3)c2F)c1` [Example 57, N-({4-chloro-3-[(3-chloro-5-cyanophenyl)oxy]-2-fluorophenyl}methyl)-1H-pyrrole-2-carboxamide], the IC50 is less than 10 nM. With `Cc1cccc2cc(C(=O)NCc3ccc(Cl)c(Oc4cc(Cl)cc(C#N)c4)c3F)[nH]c12` [Example 108, N-({4-chloro-3-[(3-chloro-5-cyanophenyl)oxy]-2-fluorophenyl}methyl)-7-methyl-1H-indole-2-carboxamide], the IC50 was 10 to 1000 nM.

Take `N#Cc1cc(Cl)cc(Oc2c(Cl)ccc(CNC(=O)c3cc4ccc([N+](=O)[O-])cc4[nH]3)c2F)c1` [Example 31, N-({4-chloro-3-[(3-chloro-5-cyanophenyl)oxy]-2-fluorophenyl}methyl)-6-nitro-1H-indole-2-carboxamide]: the IC50 lay in the range of 10 to 1000 nM.

For the compound `N#Cc1cc(Cl)cc(Oc2c(Cl)ccc(CNC(=O)c3cc4cccc([N+](=O)[O-])c4[nH]3)c2F)c1` [Example 37, N-({4-chloro-3-[(3-chloro-5-cyanophenyl)oxy]-2-fluorophenyl}methyl)-7-nitro-1H-indole-2-carboxamide], the IC50 was in the range of 10 to 1000 nM.
